Test results taken from the RepoRT retention time repository.

Test: RP, Waters CORTECS UPLC C18, 100 × 2.1 mm, 1.6 µm, 40 °C, 0.4 mL/min, estimated dead time 0.55 min; A: water + 0.1% formic acid, pH 3; B: acetonitrile + 0.1% formic acid, pH 3; gradient (min/%B) 0/5 1.12/5 6.41/99.5 10.01/99.5
Conditions: stereoisomer not certain

Structure (SMILES)	LC retention time [min]
CC1COC(Cn2cncn2)(c2ccc(Oc3ccc(Cl)cc3)cc2Cl)O1 (stereo unspecified) [Difenoconazole]	5.46
CCOC(=O)CC(SP(=O)(OC)OC)C(=O)OCC (stereo unspecified) [Malaoxon]	4.05
CCOC(=O)CCN(SN(C)C(=O)Oc1cccc2c1OC(C)(C)C2)C(C)C [Benfuracarb]	6.01
C#CCOc1ccc(CCNC(=O)C(OCC#C)c2ccc(Cl)cc2)cc1OC (stereo unspecified) [Mandipropamid]	4.95
C=CCCCCCCCC(=O)O [9-Decenoic acid]	4.62
CCOP(=S)(OCC)Oc1nc(Cl)c(Cl)cc1Cl [Dursban]	6.17
CCN(CC)c1nc(C)cc(OP(=S)(OC)OC)n1 [Pirimiphos-methyl]	5.67
Cc1cc(C)nc(NC(=O)NS(=O)(=O)c2ccccc2C(=O)OC2COC2)n1 [Oxasulfuron]	3.85
CC(C)N1C(=O)N(c2ccccc2)CSC1=NC(C)(C)C [Buprofezin]	5.45
Cc1nnc(-c2ccccc2)c(=O)n1N [Metamitron]	3.09
Cc1nn(-c2cc(NS(C)(=O)=O)c(Cl)cc2Cl)c(=O)n1C(F)F [Sulfentrazone]	4.21
O=C(Nc1ccccc1)Nc1ccnc(Cl)c1 [Forchlorfenuron]	4.19
CC1=NNC(=O)N(N=Cc2cccnc2)C1 [Pymetrozin]	1.02
COC(=O)C(C)N(C(=O)c1ccco1)c1c(C)cccc1C (stereo unspecified) [Furalaxyl]	4.79
COC(=O)Nc1nc2ccccc2[nH]1 [Carbendazim]	2.38
O=CC(O)C(O)C(O)CO (stereo unspecified) [ARABINOSE]	0.798
CNC(=O)Oc1cccc2c1OC(C)(C)C2 [Carbofuran]	4.09
Cc1ccn2nc(S(=O)(=O)Nc3c(F)cccc3F)nc2n1 [Flumetsulam]	3.43
O=c1c2cc(F)ccc2nc(-n2cncn2)n1-c1ccc(Cl)cc1Cl [Fluquinconazole]	5.01
CCCC1COC(Cn2cncn2)(c2ccc(Cl)cc2Cl)O1 (stereo unspecified) [Propioconazole]	5.3

Structure (SMILES)	LC retention time [min]
CCCN(CC)CC1COC2(CCC(C(C)(C)C)CC2)O1 (stereo unspecified) [Spiroxamine]	4.29
O=c1[nH]c(=O)c2[nH]c(=O)[nH]c2[nH]1 [URATE]	0.727
CCCSP(=O)(OCC)SCCC [Ethoprop]	5.02
C=CCNC(=O)c1c([Si](C)(C)C)sc(C)c1C [Silthiofam]	5.36
CCOP(=S)(OCC)Oc1cnc2ccccc2n1 [Quinalfos]	5.44
CS(=O)(=O)c1cc(C(F)(F)F)ccc1C(=O)c1cnoc1C1CC1 [Isoxaflutole]	4.85
OC(c1ccc(Cl)cc1)(c1cncnc1)c1ccccc1Cl (stereo unspecified) [Fenarimol]	4.86
CCOC(=O)CCN(Cc1ccccc1)SN(C)C(=O)ON=C(C)SC [Alanycarb]	5.25
C#CCN1C(=O)COc2cc(F)c(N3C(=O)C4=C(CCCC4)C3=O)cc21 [Flumioxazin]	4.77
CNC(=O)Oc1cc(C)c(N(C)C)c(C)c1 [Mexacarbate]	2.61
COP(=O)(OC)C(O)C(Cl)(Cl)Cl (stereo unspecified) [Trichlorfon]	3
O=C(NC(=O)c1c(F)cccc1F)Nc1ccc(Cl)cc1 [Diflubenzuron]	5.11
CON=C(C(=O)OC)c1ccccc1COc1ccccc1C [Kresoxim-methyl]	5.42
O=C(Nc1ccccc1-c1ccc(Cl)cc1)c1cccnc1Cl [Boscalid]	4.99
O=C(NC(=O)c1c(F)cccc1F)Nc1cc(Cl)c(OC(F)(F)C(F)C(F)(F)F)cc1Cl (stereo unspecified) [Lufenuron]	5.91
CNC(=O)C(C)SCCSP(=O)(OC)OC (stereo unspecified) [Vamidothion]	3.02
CCC(C)(NC(=O)c1cc(Cl)c(C)c(Cl)c1)C(=O)CCl (stereo unspecified) [Zoxamide]	5.55
Cc1cccc2sc3nncn3c12 [Tricyclazol]	3.38
CON=C(C(=O)OC)c1ccccc1CON=C(C)c1cccc(C(F)(F)F)c1 [Trifloxystrobin]	5.81
CNC(=O)ON=C(C)SC [Methomyl]	4.02

Second part, the compound after the results:

LC retention time [min]	Structure (SMILES)
2.55	CC(=O)NCCc1c[nH]c2ccc(O)cc12 [N-ACETYLSEROTONIN]
1.5	N[C@@H](Cc1ccc(O)c([N+](=O)[O-])c1)C(=O)O [3-NITRO-L-TYROSINE]
4.2	CCCCCCCCCC(O)CC(=O)OC(CC(=O)[O-])C[N+](C)(C)C [[(3R)-3-Hydroxydodecanoyl]-L-carnitine]
1.97	CCCOC(=O)NCCCN(C)C [Propamocarb]
1.19	Nc1ccccc1C(=O)CC(N)C(=O)O (stereo unspecified) [KYNURENINE]
4.22	CN(C)C(=O)NC1CCCCCCC1 [Cycluron]
3.05	CCCCCC(=O)OC(CC(=O)[O-])C[N+](C)(C)C [Hexanoyl-L-carnitine]
3.28	O=Cc1c[nH]c2ccccc12 [Indole-3-carboxaldehyde]
2.15	O=C(O)c1cc(=O)c2cccc(O)c2[nH]1 [XANTHURENATE]
5.25	CC(CCC(=O)NCC(=O)O)C1CCC2C3CCC4CC(O)CCC4(C)C3CCC12C (stereo unspecified) [Glycolithocholic acid]
2.66	CCCCC(=O)OC(CC(=O)[O-])C[N+](C)(C)C [Valeryl-L-carnitine]
0.763	O=C(O)c1cccnc1C(=O)O [2,3-Pyridinedicarboxylic acid]
5.56	C[S+](CCC(N)C(=O)[O-])CC1OC(n2cnc3c(N)ncnc32)C(O)C1O (stereo unspecified) [S-ADENOSYLMETHIONINE]
2.67	Cc1cc2nc3c(=O)[nH]c(=O)nc-3n(CC(O)C(O)C(O)CO)c2cc1C (stereo unspecified) [RIBOFLAVIN]
4.05	CC12CCC(=O)C=C1CCC1C2CCC2(C)C1CCC2(O)C(=O)CO (stereo unspecified) [CORTEXOLONE]
4.13	CC(CCC(=O)O)C1CCC2C3C(=O)CC4CC(=O)CCC4(C)C3CC(=O)C12C (stereo unspecified) [Dehydrocholic acid]
4.24	COC(=O)c1ccc(CNS(C)(=O)=O)cc1S(=O)(=O)NC(=O)Nc1nc(OC)cc(OC)n1 [Mesosulfuron-methyl]
3.71	NC(Cc1cc(I)c(Oc2ccc(O)c(I)c2)c(I)c1)C(=O)O (stereo unspecified) [LIOTHYRONINE]
5.22	CC(CCC(=O)O)C1CCC2C3CCC4CC(O)CCC4(C)C3CC(O)C12C (stereo unspecified) [Deoxycholic acid]
5.06	O=C(NCc1ncc(C(F)(F)F)cc1Cl)c1c(Cl)cccc1Cl [Fluopicolide]
4.37	CCN(CC)C(=O)c1cccc(C)c1 [Deet]

LC retention time [min]	Structure (SMILES)
4.34	CC(CCC(=O)O)C1CCC2C3C(O)CC4CC(O)CCC4(C)C3CC(O)C12C (stereo unspecified) [Ursocholic acid (7-epicholic acid)]
5.12	CC(CCC(=O)O)C1CCC2C3C(O)CC4CC(O)CCC4(C)C3CCC12C (stereo unspecified) [Chenodeoxycholic acid]
5.78	CCCCCCCCCCCCCCC[n+]1cccc(S(=O)(=O)[O-])c1 [C15-APS]
2.19	CSCC1OC(n2cnc3c(N)ncnc32)C(O)C1O (stereo unspecified) [METHYLTHIOADENOSINE]
3.86	NC1=C(Cl)C(=O)c2ccccc2C1=O [Quinoclamine]
0.886	O=C(O)c1cc(O)c(O)c(O)c1 [Gallic acid]
3.32	CCCCCCC[n+]1cccc(S(=O)(=O)[O-])c1 [C7-APS]
3.21	O=C(O)c1c[nH]c2ccccc12 [Indole-3-carboxylic acid]
5.38	CCCCCC=CCC=CCCCCCCCC(=O)OC(CC(=O)[O-])C[N+](C)(C)C [cis,cis-9,12-Octadecadienoyl-L-carnitine]
6.25	Cc1nn(C)c(Oc2ccccc2)c1C=NOCc1ccc(C(=O)OC(C)(C)C)cc1 [Fenpyroximate]
2.13	O=Cc1cccc(O)c1 [3-HYDROXYBENZALDEHYDE]
4.96	CCCCCCCCCCCC=CC(=O)OC(CC(=O)[O-])C[N+](C)(C)C [trans-2-Tetradecenoyl-L-carnitine]
2.13	O=C(O)c1ccccc1 [BENZOATE]
1.08	O=C(O)c1ccc(C(=O)O)o1 [2,5-Furandicarboxylic acid]
0.751	Nc1nc2c(ncn2C2CC(O)C(CO)O2)c(=O)[nH]1 (stereo unspecified) [DEOXYGUANOSINE]
2.29	CC(=O)N[C@@H](Cc1ccc(O)cc1)C(=O)O [N-Acetyl-L-tyrosine]
2.88	NC(=O)c1ccccc1O [SALICYLAMIDE]
0.798	OCC1OC(O)C(O)C1O (stereo unspecified) [RIBOSE]
3.35	N[C@@H](Cc1cc(I)c(Oc2ccc(O)cc2)c(I)c1)C(=O)O [3,5-DIIODO-L-THYRONINE]
3.14	CN(C)C(=O)Nc1ccccc1 [Fenuron]
